The supplement of paper PMC10307832

Assays:
Assay in all cases: relative viability (nuclei count vs DMSO), 5 days (fraction); higher = more cells survive
Bexarotene + Alpelisib = compound: C=C(c1ccc(C(=O)O)cc1)c1cc2c(cc1C)C(C)(C)CCC2(C)C [Bexarotene] + Cc1nc(NC(=O)N2CCC[C@H]2C(N)=O)sc1-c1ccnc(C(C)(C)C(F)(F)F)c1 [Alpelisib] (partner 2 µM)
In short: (§1)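 Lung cancer cell lines, seeded in 1536-well plates, were treated the following day by pin tool with a single drug or with five library-drug doses (not always all listed) in √10 steps on top of a fixed anchor-drug dose. Cells were fixed and nuclei stained in one step after 5 days, and nuclei were counted. Relative viability is the nuclei count for treated wells divided by that for vehicle wells, reported as medians of duplicate plates.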

Bexarotene + Linsitinib = compound: C=C(c1ccc(C(=O)O)cc1)c1cc2c(cc1C)C(C)(C)CCC2(C)C [Bexarotene] + C[C@]1(O)C[C@@H](c2nc(-c3ccc4ccc(-c5ccccc5)nc4c3)c3c(N)nccn32)C1 [Linsitinib] (partner 1 µM)
In short: as §1

Bexarotene + Decitabine = compound: C=C(c1ccc(C(=O)O)cc1)c1cc2c(cc1C)C(C)(C)CCC2(C)C [Bexarotene] + Nc1ncn([C@H]2C[C@H](O)[C@@H](CO)O2)c(=O)n1 [Decitabine] (partner 2 µM)
In short: as §1

Bexarotene + Pictilisib = compound: C=C(c1ccc(C(=O)O)cc1)c1cc2c(cc1C)C(C)(C)CCC2(C)C [Bexarotene] + CS(=O)(=O)N1CCN(Cc2cc3nc(-c4cccc5[nH]ncc45)nc(N4CCOCC4)c3s2)CC1 [Pictilisib] (partner 1 µM)
In short: as §1

Cell Line | relative viability (Bexarotene + Alpelisib; first compound 0.08 µM) | relative viability (Bexarotene + Alpelisib; first compound 0.253 µM) | relative viability (Bexarotene + Alpelisib; first compound 0.8 µM) | relative viability (Bexarotene + Alpelisib; first compound 2.53 µM) | relative viability (Bexarotene + Alpelisib; first compound 8 µM) | relative viability (Bexarotene + Linsitinib; first compound 0.08 µM) | relative viability (Bexarotene + Linsitinib; first compound 0.253 µM) | relative viability (Bexarotene + Linsitinib; first compound 0.8 µM) | relative viability (Bexarotene + Linsitinib; first compound 2.53 µM) | relative viability (Bexarotene + Linsitinib; first compound 8 µM) | relative viability (Bexarotene + Decitabine; first compound 0.08 µM) | relative viability (Bexarotene + Decitabine; first compound 0.253 µM) | relative viability (Bexarotene + Decitabine; first compound 0.8 µM) | relative viability (Bexarotene + Decitabine; first compound 2.53 µM) | relative viability (Bexarotene + Decitabine; first compound 8 µM) | relative viability (Bexarotene + Pictilisib; first compound 0.08 µM) | relative viability (Bexarotene + Pictilisib; first compound 0.253 µM) | relative viability (Bexarotene + Pictilisib; first compound 0.8 µM) | relative viability (Bexarotene + Pictilisib; first compound 2.53 µM) | relative viability (Bexarotene + Pictilisib; first compound 8 µM)
NCI-H1993 | 0.657 | 0.645 | 0.689 | 0.735 | 0.684 | 0.718 | 0.665 | 0.608 | 0.656 | 0.774 | 0.537 | 0.484 | 0.554 | 0.576 | 0.608 | 0.803 | 0.846 | 0.899 | 0.866 | 0.836
NCI-H1437 | 1.02 | 1.06 | 0.946 | 1.11 | 0.829 | 1.01 | 1.09 | 0.93 | 1 | 0.898 | 0.592 | 0.581 | 0.556 | 0.564 | 0.51 | 0.572 | 0.447 | 0.56 | 0.601 | 0.542
UMC-11 | 0.971 | 1.02 | 0.954 | 1.04 | 0.955 | 1.08 | 1.01 | 1.04 | 0.978 | 0.998 | 0.605 | 0.589 | 0.604 | 0.634 | 0.539 | 0.973 | 0.814 | 0.756 | 0.805 | 0.802
201T | 1.02 | 0.991 | 0.941 | 0.916 | 0.909 | 0.952 | 1.02 | 0.874 | 0.951 | 0.843 | 0.828 | 0.858 | 0.746 | 0.781 | 0.692 | 0.745 | 0.631 | 0.612 | 0.639 | 0.596
NCI-H358 | 1.07 | 0.881 | 0.579 | 1.03 | 0.923 | 0.874 | 0.699 | 0.568 | 0.778 | 0.643 | 0.212 | 0.216 | 0.184 | 0.222 | 0.185 | 0.377 | 0.364 | 0.376 | 0.435 | 0.351
LOU-NH91 | 0.633 | 0.653 | 0.601 | 0.632 | 0.616 | 0.912 | 0.901 | 0.806 | 0.79 | 0.823 | 0.854 | 0.841 | 0.833 | 0.773 | 0.717 | 0.546 | 0.537 | 0.508 | 0.492 | 0.505
HOP-62 | 1.35 | 1.4 | 1.03 | 1.12 | 0.917 | 1.01 | 1.17 | 1.15 | 1.02 | 0.909 | 0.222 | 0.183 | 0.183 | 0.164 | 0.208 | 1.04 | 0.811 | 0.684 | 0.79 | 0.626
NCI-H1915 | 1.17 | 1.06 | 1.04 | 1 | 0.95 | 1.16 | 1.12 | 1.03 | 1.04 | 1.07 | 0.272 | 0.259 | 0.274 | 0.255 | 0.23 | 1.19 | 0.989 | 0.882 | 0.996 | 0.917
NCI-H3122 | 0.782 | 0.8 | 0.784 | 0.786 | 0.847 | 1.14 | 1.08 | 1.1 | 1.07 | 1.14 | 0.521 | 0.385 | 0.416 | 0.415 | 0.365 | 0.82 | 0.821 | 0.647 | 0.855 | 0.802
NCI-H1651 | 1 | 1 | 1.09 | 0.997 | 0.921 | 1.12 | 0.934 | 1.02 | 1.08 | 0.984 | 0.77 | 0.548 | 0.66 | 0.638 | 0.618 | 0.837 | 0.52 | 0.723 | 0.674 | 0.593
NCI-H838 | 1.1 | 1.11 | 1.14 | 1.08 | 1.06 | 1.13 | 1.11 | 1.03 | 1.17 | 1.06 | 0.521 | 0.423 | 0.499 | 0.515 | 0.445 | 0.557 | 0.5 | 0.51 | 0.638 | 0.578
NCI-H596 | 0.581 | 0.6 | 0.479 | 0.668 | 0.565 | 1.12 | 0.966 | 0.838 | 0.981 | 1.06 | 1.11 | 0.966 | 0.974 | 1.09 | 1.02 | 0.397 | 0.441 | 0.299 | 0.363 | 0.426
SK-LU-1 | 1.11 | 1.06 |  | 0.97 | 0.988 | 1.22 | 1.12 |  | 0.93 | 1.23 | 0.668 | 0.676 |  | 0.588 | 0.599 | 0.717 | 0.663 |  | 0.567 | 0.63
NCI-H441 | 1.09 | 1.06 | 0.727 |  | 0.841 | 0.587 | 0.583 | 0.578 | 0.616 | 0.556 | 0.3 | 0.283 | 0.236 | 0.229 | 0.279 | 0.628 | 0.511 | 0.524 | 0.482 | 0.616
NCI-H650 | 1.18 | 1.06 | 1.08 | 1.06 | 1 | 0.869 | 0.926 | 0.793 | 0.645 | 0.83 | 0.284 | 0.263 | 0.328 | 0.301 | 0.309 | 0.946 | 0.939 | 0.851 | 0.753 | 0.858
SK-MES-1 | 1.06 | 0.948 | 0.961 | 0.893 | 0.956 | 1.15 | 1.18 | 0.983 | 1.05 | 0.97 | 0.43 | 0.379 | 0.423 | 0.294 | 0.3 | 0.397 | 0.408 | 0.466 | 0.329 | 0.399
